System: caspase 3/7 in MCF-7 cells
Assay: Caspase-Glo 3/7 assay
Type: cell-based, human
Details: IC50 and 2-fold IC50, 6 h (data not shown)
Description: Caspases activity in MCF-7 cells was detected using Caspase-Glo 3/7 and Caspase-Glo 9 Assay kits (Promega, Mannheim, Germany) as previously reported. […] Luminescence was measured using an BioTek Synergy™ HT multi-detection microplate reader. Caspase activity was expressed as percentage of the untreated control.

| Compound | activity of caspase 3/7 |
| --- | --- |
| CC1=CC(=O)c2c(O)cccc2C1=O [Compound 4, 5-hydroxy-2-methyl-1,4-naphthalenedione] | no modification |
| CCCCCCCCCCCCCC1=C(O)C(=O)C=C(O)C1=O [Compound 9, 2,5-dihydroxy-3-tridecyl-2,5-cyclohexadiene-1,4-dione] | no modification |

Reference: PMC5175396, “Cytotoxicity of Plumbagin, Rapanone and 12 other naturally occurring Quinones from Kenyan Flora towards human carcinoma cells” (BMC Pharmacology & Toxicology, 2016)
